System: mean blood pressure
Assay: Antihypertensive activity: intra-arterial mean blood pressure after single oral dose in rats
Type: in vivo
Settings: rat, p.o.; for ED25 (dose lowering mean blood pressure of 25 mmHg) / ED (25 mmHg): single dose, calculated from dose-response regression line; for Decrease in mean blood pressure at 15' / Decrease in mean blood pressure at 30' / Decrease in mean blood pressure at 1 h / Decrease in mean blood pressure at 2 h / Decrease in mean blood pressure at 3 h / Decrease in mean blood pressure at 4 h / Decrease in mean blood pressure at 5 h / Decrease in mean blood pressure at 6 h / Decrease in mean blood pressure at 8 h / Decrease in mean blood pressure at 10 h / Decrease in mean blood pressure at 12 h: ex 40 0.125, Example 1 0.5, ex 41 0.25, Example 2 1 mg/kg; for Decrease in mean blood pressure at 15': 15 min, not significant (**): Example 1; for Decrease in mean blood pressure at 30': 30 min; for Decrease in mean blood pressure at 6 h: not significant (**): ex 41; for Decrease in mean blood pressure at 8 h / Decrease in mean blood pressure at 10 h / Decrease in mean blood pressure at 12 h: not significant (**): ex 40, ex 41; for ED (25 mmHg): po, read-out: ED25 (dose lowering mean blood pressure of 25 mmHg)
Experimental: Intrarterial measurements of mean blood pressure (MBP) were performed through catheters (PE 50, Clay Adams) implanted in the rat right carotid artery under halothane anesthesia. Twenty four hours after surgery, the animals were placed in Ballman cages and the arterial cannula was connected via a pressure transducer to a Beckman blood pressure recorder for continuous monitoring of mean blood pressure. MBP was recorded before the oral administration (basal values) and at 15-30-60-120-240 minutes until 12 hours after treatment. Groups of 7 to 8 rats were orally treated with a single dose of the test compound of vehicle, methocel 0.5% w/v (0.2 ml/100 g b.w.). The ED25 was calculated for each compound from the dose-response regression line.
As reference standard drugs, two prior art ergoline derivatives described by EP 0126968 were also tested.
In fact, the mean blood pressure decrease induced by the two derivatives of the present invention was still significant 10 to 12 hours after dosing, whereas with the prior art compounds the hypotensive effect lasted only 5 to 6 hours. The oral orientative acute toxicity (LD50) in mice (evaluated in the Irwin test) of the compounds of the formula I was higher than 800 mg/kg.

Compound | ED25 (dose lowering mean blood pressure of 25 mmHg) | Decrease in mean blood pressure at 15' | Decrease in mean blood pressure at 30' | Decrease in mean blood pressure at 1 h | Decrease in mean blood pressure at 2 h | Decrease in mean blood pressure at 3 h | Decrease in mean blood pressure at 4 h | Decrease in mean blood pressure at 5 h | Decrease in mean blood pressure at 6 h | Decrease in mean blood pressure at 8 h | Decrease in mean blood pressure at 10 h | Decrease in mean blood pressure at 12 h | ED (25 mmHg)
CN1C[C@H](Cn2ccc(=O)[nH]c2=O)C=C2c3cccc4[nH]cc(c34)C[C@H]21 [Standard, ex 40 of EP 0126968, 1-[(6-methy -Δ-9,10-ergolen-8β-yl)methyl]-2,4-(1H,3H)dihydro-pyrimidine diole] | 0.046 mg/Kg^-1 | -22.9 ΔmmHg | -34.5 ΔmmHg | -33.9 ΔmmHg | -37.3 ΔmmHg | -34.5 ΔmmHg | -42.7 ΔmmHg | -28.9 ΔmmHg | -25.5 ΔmmHg | -10.5 ΔmmHg | -7.3 ΔmmHg | -6.7 ΔmmHg | 
1-[6-methyl -Δ- 9,10-ergolen -8β- yl)methyl]-2,4-(1H,3H)dihydro-pyrimidinedione-N6-oxide [Example 1] | 0.050 mg/Kg^-1 | -12.2 ΔmmHg | -21.0 ΔmmHg | -32.2 ΔmmHg | -35.5 ΔmmHg | -45.1 ΔmmHg | -55.1 ΔmmHg | -58.5 ΔmmHg | -54.3 ΔmmHg | -44.3 ΔmmHg | -35.5 ΔmmHg | -27.2 ΔmmHg | 
C[N+]1([O-])C[C@H](CN2CC(=O)NC2=O)C=C2c3cccc4[nH]cc(c34)C[C@H]21 (stereo partly drawn) [Example 2, 1-[(6-methyl -Δ-9,10-ergolen-8β-yl)methyl]-2,4-imidazolidinedione-N6-oxide] |  | -23.1 ΔmmHg | -27.5 ΔmmHg | -35.9 ΔmmHg | -34.1 ΔmmHg | -35.0 ΔmmHg | -38.4 ΔmmHg | -36.5 ΔmmHg | -34.1 ΔmmHg | -27.8 ΔmmHg | -22.5 ΔmmHg | -16.2 ΔmmHg | 0.198 mg/kg
CN1C[C@H](CN2CC(=O)NC2=O)C=C2c3cccc4[nH]cc(c34)C[C@H]21 [Standard, ex 41 of EP 0126968, 1-[(6-methyl-Δ-9,10-ergolen-8β-yl)methyl]-2,4-imidazolidinedione] |  | -26.8 ΔmmHg | -31.4 ΔmmHg | -29.6 ΔmmHg | -37.5 ΔmmHg | -35.7 ΔmmHg | -31.4 ΔmmHg | -15.7 ΔmmHg | -14.6 ΔmmHg | -2.5 ΔmmHg | -6.5 ΔmmHg | -9.4 ΔmmHg | 0.19 mg/kg

— patent US4859678A, “N-oxide ergolines as antihypertensive agents” (Farmitalia Carlo Erba, priority 1987, dated 1989)
